Assay results reported in patent US20250026719A1, “NOVEL COMPOUNDS AS INHIBITORS OF PCSK9” (SHENGKE PHARMACEUTICALS (JIANGSU) LTD., priority 2021, published 2025).

How the values were obtained:
PCSK9 = PCSK9 ELISA of HepG2 culture medium; assay type: cell-based; settings: 24 hr
Method: (§1) HepG2 cells (ATCC, Cat.:HB-8065) were maintained in Growth medium—Eagle's Minimum Essential Medium (Corning, 10-010-CVR), 10% FBS (Gibco, 10099-141), Penicillin (100 units/mL), Streptomycin (100 μg/mL). HepG2 cells were incubated at 37° C., 5% CO2. HepG2 cells were plated in flat bottom 96-well plates (Corning, 3599) at 40,000 cells/well in 100 μL of growth media. After an overnight incubation, the culture media were changed to serum-free OptiMEM media(Gibco, 31985-062), 90 μL/well. Vehicle, PF-06446846 hydrochloride, berberine, or test compound was added to the culture media, 10 μL/well. After 24 hr medium was harvested, and 10 μL of the medium were used for the PCSK9 ELISA(R&D Systems, SPC900).

PCSK9 mRNA = assay: RT-Q-PCR analysis of PCSK9 mRNA in HepG2 cells; assay type: cell-based; settings: Homo sapiens, 24 h, normalized to GAPDH, read-out: HepG2 Q-PCR PCSK9 mRNA level decrease (10 μM)
Method: HepG2 cells (ATCC, Cat.:HB-8065) were maintained in Growth medium—Eagle's Minimum Essential Medium (Corning, 10-010-CVR), 10% FBS (Gibco, 10099-141), Penicillin (100 units/mL), Streptomycin (100 μg/mL). HepG2 cells were incubated at 37° C., 5% CO2.
Cells were cultured in growth medium as described above and treated with the vehicle, Berberine or test compound for 24 h. The RNA was extracted using the Total RNA mini Kit (Tiangen, Beijing, China) according to the manufacturer's instructions. Reverse transcription was carried out using the High-Capacity cDNA reverse transcription kit (Thermo Fisher Scientific). Quantitative real-time PCR was performed using a reaction mixture containing cDNA, specific primers [PCSK9, 5′-[…]-3′ (forward) and 5′-[…]-3′ (reverse); GAPDH, 5′-[…]-3′ (forward) and 5′-[…]-3′ (reverse)] and Maxima SYBR Green/ROX qPCR Master Mix(Thermo Fisher Scientific). PCR amplification was carried out in a Real-Time PCR System. The real-time PCR conditions were 37° C. 10 min; 95° C. 10 min; 95° C. 15 s, 60° C. 30 s, 72° C. 30 s, 40 cycle. The amount of mRNA was normalized to the GAPDH level in the same samples.

[1] = Metabolic stability in human liver microsomes; assay type: in vitro ADME; settings: human liver microsomes 0.5 mg/mL, 37° C., read-out: Metabolic stability T1/2 (minute) Human
Method: (§2) Metabolic Stability of Test Compounds in Incubation with Human, and Rat Liver Microsomes Study Details: • Test concentration: 1 μM; • Reference compound: Ketanserin; • Test systems: human, and rat liver microsomes (from Corning or Xenotech) with final liver microsomal protein concentration of 0.5 mg/mL; • Incubation condition: 0, 5, 15, 30, and 45 min at 37° C.; • Sample size: Duplicates (n=2); • Bioanalytical method: LC-MS/MS;
(§3) [formula] [formula] [formula] • where QH is the hepatic blood flow (mL/min/kg), fub is the fraction of unbound drug in plasma which is assumed to be 1, Clint is the in vitro intrinsic clearance.

[2] = Metabolic stability in rat liver microsomes; assay type: in vitro ADME; settings: rat liver microsomes 0.5 mg/mL, 37° C., read-out: Metabolic stability T1/2 (minute) Rat
Method: as §2, §3

HepG2 cells = assay: HepG2 cell viability assay (CellTiter-Glo, cellular ATP); assay type: cell-based; settings: 24 hr, serum-free OptiMEM
Method: as §1, with “black clear” for “flat”, “3063)” for “3599)”, “media (Gibco,” for “media(Gibco,”, “cellular ATP levels” for “medium was harvested, and 10 μL of the medium”, “measured using CellTiter-Glo® 2.0 Assay (Promega, G9242).” for “used for the PCSK9 ELISA(R&D Systems, SPC900).”

half-life at 1 μM [1] [min]	half-life at 1 μM [2] [min]	SMILES	HepG2 PCSK9 ELISA (10 μM) % inhibition (PCSK9) [%]	inhibition at 10 µM (PCSK9 mRNA) [%]	HepG2 Survival assay (10 μM) (HepG2 cells) [%]
		COc1ccc2cc3[n+](cc2c1OC)CCc1cc2c(cc1-3)OCO2 [Berberine, reference compound]	52	35	
57.2	341	CC(C)NC(=O)CN(CC(=O)Nc1ccc(Oc2ccc(C(F)(F)F)cc2)cc1)C(=O)c1cc2cccc(F)c2[nH]1 [Compound 201-275]	80	75	92
46.7	42.4	CCc1ccc(Oc2ccc(NC(=O)CN(CC(=O)NC(C)C)C(=O)c3cc4cccc(F)c4[nH]3)cc2)cc1 [Compound 201-276]	94	54	99
40.2	45.4	CC(C)NC(=O)CN(CC(=O)Nc1ccc(Oc2ccc(F)c(F)c2)cc1)C(=O)c1cc2cccc(F)c2[nH]1 [Compound 201-277]	100	86	90
159	428	CC(C)NC(=O)CN(CC(=O)Nc1ccc(Oc2ccc(C(F)(F)F)cc2)cc1)C(=O)c1ccc(C(F)(F)F)[nH]1 [Compound 201-281]	100	70	98
77.8	49.6	CC(C)NC(=O)CN(CC(=O)Nc1ccc(Oc2ccc(F)c(F)c2)cc1)C(=O)c1ccc(C(F)(F)F)[nH]1 [Compound 201-283]	100	77	97
64	66	CC(C)NC(=O)CN(CC(=O)Nc1ccc(Oc2ccc(C(F)(F)F)cc2)cc1)C(=O)c1cc2cccc(C#N)c2[nH]1 [Compound 201-284]	94	90	101
100	138	O=C(CN(CC(=O)NC1CC1)C(=O)c1cc2cccc(F)c2[nH]1)Nc1ccc(Oc2ccc(C(F)(F)F)cc2)cc1 [Compound 201-287]	99	56	96
98.7	417	O=C(CN(CC(=O)NC1CC1)C(=O)c1ccc(C(F)(F)F)[nH]1)Nc1ccc(Oc2ccc(C(F)(F)F)cc2)cc1 [Compound 201-293]	100	50	99
		CC(C)NC(=O)CN(CC(=O)Nc1ccc(Oc2ccc(C(C)C)cc2)cc1)C(=O)c1cc2cccc(F)c2[nH]1 [Compound 201-311]	85		105.9
52.8	29.6	CC(C)c1ccc(Oc2ccc(NC(=O)CN(CC(=O)NC3CC3)C(=O)c3cc4cccc(F)c4[nH]3)cc2)cc1 [Compound 201-312]	89	50	102.7
		COc1ccc(Oc2ccc(NC(=O)CN(CC(=O)NC(C)C)C(=O)c3cc4cccc(F)c4[nH]3)cc2)cc1 [Compound 201-313]	98		89.4
		COc1ccc(Oc2ccc(NC(=O)CN(CC(=O)NC3CC3)C(=O)c3cc4cccc(F)c4[nH]3)cc2)cc1 [Compound 201-314]	97		103.7
		CC(C)NC(=O)CN(CC(=O)Nc1ccc(Oc2ccc(C(C)C)cc2)cc1)C(=O)c1ccc(C(F)(F)F)o1 [Compound 201-315]	89		102
		CC(C)c1ccc(Oc2ccc(NC(=O)CN(CC(=O)NC3CC3)C(=O)c3ccc(C(F)(F)F)o3)cc2)cc1 [Compound 201-316]	89		108.4
		COc1ccc(Oc2ccc(NC(=O)CN(CC(=O)NC(C)C)C(=O)c3ccc(C(F)(F)F)o3)cc2)cc1 [Compound 201-317]			100.8
		COc1ccc(Oc2ccc(NC(=O)CN(CC(=O)NC3CC3)C(=O)c3ccc(C(F)(F)F)o3)cc2)cc1 [Compound 201-318]			101.6
		CC(C)NC(=O)CN(CC(=O)Nc1ccc(Oc2ccc(C(C)C)cc2)cc1)C(=O)c1ccc(C(F)(F)F)[nH]1 [Compound 201-319]	96	60	76.1
93	20.8	CC(C)c1ccc(Oc2ccc(NC(=O)CN(CC(=O)NC3CC3)C(=O)c3ccc(C(F)(F)F)[nH]3)cc2)cc1 [Compound 201-320]	93	80	87.3
		COc1ccc(Oc2ccc(NC(=O)CN(CC(=O)NC3CC3)C(=O)c3ccc(C(F)(F)F)[nH]3)cc2)cc1 [Compound 201-322]			89.6
		CC(C)NC(=O)CN(CC(=O)Nc1ccc(Oc2ccc(C(C)C)cc2)cc1)C(=O)c1cc2cccc(C#N)c2[nH]1 [Compound 201-323]	79		105.6
		CC(C)c1ccc(Oc2ccc(NC(=O)CN(CC(=O)NC3CC3)C(=O)c3cc4cccc(C#N)c4[nH]3)cc2)cc1 [Compound 201-324]	72		101.5
		COc1ccc(Oc2ccc(NC(=O)CN(CC(=O)NC3CC3)C(=O)c3cc4cccc(C#N)c4[nH]3)cc2)cc1 [Compound 201-326]	83		112.5
14.4	35.4	CC(C)NC(=O)CN(CC(=O)Nc1ccc(Oc2ccc(C(F)F)cc2)cc1)C(=O)c1cc2cccc(F)c2[nH]1 [Compound 201-327]	90	88	98
14.3	17.5	CC(C)NC(=O)CN(CC(=O)Nc1ccc(Oc2ccc(C(F)F)cc2)cc1)C(=O)c1cc2cccc(C#N)c2[nH]1 [Compound 201-329]	91	73	106
20.6	41	CC(C)NC(=O)CN(CC(=O)Nc1ccc(Oc2cc(F)c(F)c(F)c2)cc1)C(=O)c1cc2cccc(F)c2[nH]1 [Compound 201-331]	87	92	103
22.4	38.7	CC(C)NC(=O)CN(CC(=O)Nc1ccc(Oc2cc(F)c(F)c(F)c2)cc1)C(=O)c1cc2cccc(C#N)c2[nH]1 [Compound 201-332]	89	85	99
